Patent publication US20240115654A1, “INTRAVENOUS ADMINISTRATION OF ENGINEERED ANTIMICROBIAL AMPHIPHILIC PEPTIDES” (priority 2021, published 2024)
Where two headings read alike, the source gives them in different places. Peptide text beside a SMILES is read from it.

Text: All subjects who met eligibility criteria were confined to the clinical research unit from […] through Day 3. At admission, physical examination, vital signs, 12 lead ECG and weight were obtained, medical and medication history were updated if necessary, safety blood tests (hematology and chemistry), urinalysis, urine drug screen and an alcohol breath test were repeated and a urine pregnancy test was done for women of childbearing potential.
At each dose level, there were 2 sentinel subjects, (1 active, 1 placebo), who were dosed at least 48 hours in advance of the other subjects in their respective group. Following review of safety data, including physical examination, vital signs, and review of adverse events from the first 2 subjects, enrolment in the cohort continued.
A 12-lead ECG was performed on Day 1, within 60 minutes of infusion start (in triplicate), mid-way through the infusion, at the completion of the infusion, 30 minutes after completion of the infusion and at various timepoints following the end of the infusion.
Vital signs were recorded within 60 minutes pre-dose, at the mid-point of the infusion and post dose vitals were assessed at completion of the infusion, 0.5, 1, 2, 3, 4, 6, 9, 12, 24 and 48 hours post dose, after at least 3 minutes of rest in supine position.
Subjects returned to the study center 7 days after dosing, for the termination visit. A full physical examination, vital signs and weight were obtained, concomitant medications were updated if necessary, safety blood specimens (haematology and chemistry, PT and aPTT) and urine were collected for urinalysis and urine drug screening. A serum pregnancy test was done for women of childbearing potential and a 12-lead ECG was performed.
In this study dose limiting toxicity (DLT) was defined as any drug related ≥Grade 3 AEs occurring despite optimal therapeutic interventions (which included but were not limited to allergic/hypersensitivity reactions, dermatological reactions/infusion site reactions, haematological toxicities such as neutropenia, thrombocytopenia and anaemia and clinical chemistry abnormalities) experienced up to Day 7 (Termination Visit).
(§1) All subjects who received any amount of study drug were included in the safety analysis (Safety population).
The study was a double blinded, randomized, placebo-controlled study. The placebo administered was 0.9% sodium chloride.
On Day 1 (day of dosing), subjects were randomly assigned either peptide IV or Placebo IV. At each dose level, there were 2 sentinel subjects, (1 active, 1 placebo), who were dosed at least 48 hours in advance of the other subjects in their respective group. Following review of safety data, including physical examination, vital signs, and review of adverse events from the first 2 subjects, enrolment in the cohort continued. All subjects who met eligibility criteria were confined to the clinical research unit from Day −2 through Day 3. At admission, physical examination, vital signs, 12 lead ECG and weight were obtained, medical and medication history were updated if necessary, safety blood tests (hematology and chemistry), urinalysis, urine drug screen and an alcohol breath test were repeated and a urine pregnancy test was done for women of childbearing potential.
as §1

[1] = Cohort 4: 0.5 mg/kg IV 2-hr infusion (N = 6)
[2] = Cohort 4: 0.5 mg/kg IV 2 hr infusion, subject 001-S086
[3] = Cohort 4: 0.5 mg/kg IV 2 hr infusion, subject 001-S093
[4] = Cohort 4: 0.5 mg/kg IV 2 hr infusion, subject 001-S094
[5] = Cohort 5 1 mg/kg IV 4-hr infusion, participant 001-S119
[6] = Cohort 5 1 mg/kg IV 4-hr infusion, participant 001-S127
[7] = Cohort 5: 1 mg/kg IV 4-hr infusion (N = 6)
[8] = Cohorts 1-5, comparing dose level, infusion time, placebo and active

## CC(C)[C@H](NC(=O)[C@H](Cc1c[nH]c2ccccc12)NC(=O)[C@H](CCCNC(=N)N)NC(=O)[C@H](CCCNC(=N)N)NC(=O)[C@@H](NC(=O)[C@@H](NC(=O)[C@H](CCCNC(=N)N)NC(=O)[C@@H](NC(=O)[C@@H](NC(=O)[C@H](CCCNC(=N)N)NC(=O)[C@H](CCCNC(=N)N)NC(=O)[C@H](Cc1c[nH]c2ccccc12)NC(=O)[C@@H](NC(=O)[C@H](CCCNC(=N)N)NC(=O)[C@H](CCCNC(=N)N)NC(=O)[C@@H](NC(=O)[C@H](CCCNC(=N)N)NC(=O)[C@H](CCCNC(=N)N)NC(=O)[C@@H](NC(=O)[C@H](Cc1c[nH]c2ccccc12)NC(=O)[C@H](CCCNC(=N)N)NC(=O)[C@@H](N)CCCNC(=N)N)C(C)C)C(C)C)C(C)C)C(C)C)C(C)C)C(C)C)C(C)C)C(=O)N[C@@H](CCCNC(=N)N)C(=O)N[C@@H](CCCNC(=N)N)C(N)=O [SEQ ID NO: 1] (H-RRWVRRVRRVWRRVVRVVRRWVRR-NH2)
[1]
  Treatment-related TEAE: Skin and Subcutaneous Tissue Disorders, participants n (%): 0
  Treatment-related TEAE: Thrombocytopenia, participants n (%): 0
  Treatment-related TEAE: Vascular Disorders, participants n (%): 0
  Treatment-related TEAE: Vessel puncture site erythema, participants n (%): 0
  Treatment-related TEAE: Vessel puncture site pain, occurrences m: 1
  Treatment-related TEAE: Vessel puncture site pain, participants n (%): 1 (16.7%)
  Treatment-related TEAE: Vomiting, participants n (%): 0
[2]
  Infusion related reaction: End Date/Time: End of Study
  Infusion related reaction: Severity Grade: Grade 1
  Infusion related reaction: Start Date/Time: Day 1/1 hour
Cohort 4: 0.5 mg/kg IV 2 hr infusion, subject 001-S086, 0.5 mg/kg
  Infusion related reaction: Event: Myalgia
[3]
  Infusion related reaction: End Date/Time: Day 1/12 hours
  Infusion related reaction: Event: Discomfort at right
  Infusion related reaction: Severity Grade: Grade 1
[4]
  Infusion related reaction: End Date/Time: Day 1/2 hours
  Infusion related reaction: Event: Right arm cannula
  Infusion related reaction: Severity Grade: Grade 1
Cohort 5 1 mg/kg IV 4-hr infusion, participant 001-S113
  Severity of event: Localized IRR, Right arm: Grade 1
Cohort 5 1 mg/kg IV 4-hr infusion, participant 001-S117
  Severity of event: Localized IRR, Left arm: Grade 1
[5]
  Severity of event: Lightheadedness: Grade 1
  Severity of event: Localized IRR, Left arm: Grade 1
Cohort 5 1 mg/kg IV 4-hr infusion, participant 001-S120
  Severity of event: Pain at dosing site, Left arm: Grade 1
Cohort 5 1 mg/kg IV 4-hr infusion, participant 001-S122
  Severity of event: Localized IRR, Left arm: Grade 1
[6]
  Severity of event: IRR, Right arm; pain in region of right biceps muscle: Grade 1
  Severity of event: Right-sided headache: Grade 1
Cohort 5, 1 mg/kg over 4 hours in 250 mL, 6 participants, all Grade 1
  IRRs, events: 9
[7]
  Number of Participants Reporting at least: Onc TEAE Leading to Study Withdrawal, n (%): 0
  Number of Participants Reporting at least: One Dose-Limiting Toxicity, n (%): 0
  Number of Participants Reporting at least: One Related TEAE, n (%): 6 (100%)
  Number of Participants Reporting at least: One Serious TEAE, n (%): 0
  Number of Participants Reporting at least: One TEAE Leading to Study Drug Discontinuation, n (%): 0
  Number of Participants Reporting at least: One TEAE with Common Terminology Criteria for Adverse Events (CTCAE) Toxicity ≥ Grade 3, n (%): 0
  Number of Participants Reporting at least: One TEAE, n (%): 6 (100%)
  One Related TEAE, m: 11
  One TEAE, m: 20
  Participants With At Least 1 TEAE, n (%): 6 (100%)
  Participants With At Least 1 TEAE, occurrences m: 20
  Participants With At Least 1 Treatment-Related TEAE, n (%): 6 (100%)
  Participants With At Least 1 Treatment-Related TEAE, occurrences m: 11
  TEAE Severity Grade 1, m: 19
  TEAE Severity Grade 1, n (%): 6 (100%)
  TEAE Severity Grade 2, m: 1
  TEAE Severity Grade 2, n (%): 1 (16.7%)
  TEAE by system organ class: Blood and Lymphatic System Disorders, participants n (%): 0
  TEAE by system organ class: Gastrointestinal Disorders, occurrences m: 1
  TEAE by system organ class: Gastrointestinal Disorders, participants n (%): 1 (16.7%)
  TEAE by system organ class: General Disorders and Administration Site Conditions, occurrences m: 9
  TEAE by system organ class: General Disorders and Administration Site Conditions, participants n (%): 6 (100%)
  TEAE by system organ class: Infections and Infestations, participants n (%): 0
  TEAE by system organ class: Injury, Poisoning, and Procedural Complications, occurrences m: 5
  TEAE by system organ class: Injury, Poisoning, and Procedural Complications, participants n (%): 4 (66.7%)
  TEAE by system organ class: Musculoskeletal and Connective Tissue Disorders, occurrences m: 1
  TEAE by system organ class: Musculoskeletal and Connective Tissue Disorders, participants n (%): 1 (16.7%)
  TEAE by system organ class: Nervous System Disorders, occurrences m: 2
  TEAE by system organ class: Nervous System Disorders, participants n (%): 2 (33.3%)
  TEAE by system organ class: Respiratory, Thoracic, and Mediastinal disorders, participants n (%): 0
  TEAE by system organ class: Skin and Subcutaneous Tissue Disorders, occurrences m: 2
  TEAE by system organ class: Skin and Subcutaneous Tissue Disorders, participants n (%): 2 (33.3%)
  TEAE by system organ class: Vascular Disorders, participants n (%): 0
  TEAE severity Grade 1, occurrences m: 19
  TEAE severity Grade 1, participants n (%): 6 (100%)
  TEAE severity Grade 2, occurrences m: 1
  TEAE severity Grade 2, participants n (%): 1 (16.7%)
  TEAE severity Grade 3, participants n (%): 0
  TEAE severity Grade 4, participants n (%): 0
  TEAE severity Grade 5, participants n (%): 0
  Treatment-related TEAE: Abdominal distension, participants n (%): 0
  Treatment-related TEAE: Blood and Lymphatic System Disorders, participants n (%): 0
  Treatment-related TEAE: Constipation, participants n (%): 0
  Treatment-related TEAE: Diarrhea, participants n (%): 0
  Treatment-related TEAE: Dizziness, occurrences m: 1
  Treatment-related TEAE: Dizziness, participants n (%): 1 (16.7%)
  Treatment-related TEAE: Feeling hot, participants n (%): 0
  Treatment-related TEAE: Gastrointestinal Disorders, occurrences m: 1
  Treatment-related TEAE: Gastrointestinal Disorders, participants n (%): 1 (16.7%)
  Treatment-related TEAE: General Disorders and Administration Site Conditions, occurrences m: 7
  Treatment-related TEAE: General Disorders and Administration Site Conditions, participants n (%): 6 (100%)
  Treatment-related TEAE: Headache, occurrences m: 1
  Treatment-related TEAE: Headache, participants n (%): 1 (16.7%)
  Treatment-related TEAE: Infusion related reaction, participants n (%): 0
  Treatment-related TEAE: Infusion site discomfort, occurrences m: 1
  Treatment-related TEAE: Infusion site discomfort, participants n (%): 1 (16.7%)
  Treatment-related TEAE: Infusion site pain, occurrences m: 3
  Treatment-related TEAE: Infusion site pain, participants n (%): 3 (50.0%)
  Treatment-related TEAE: Infusion site reaction, occurrences m: 2
  Treatment-related TEAE: Infusion site reaction, participants n (%): 2 (33.3%)
  Treatment-related TEAE: Infusion site swelling, occurrences m: 1
  Treatment-related TEAE: Infusion site swelling, participants n (%): 1 (16.7%)
  Treatment-related TEAE: Injury, Poisoning, and Procedural Complications, participants n (%): 0
  Treatment-related TEAE: Macule, occurrences m: 1
  Treatment-related TEAE: Macule, participants n (%): 1 (16.7%)
  Treatment-related TEAE: Musculoskeletal and Connective Tissue Disorders, participants n (%): 0
  Treatment-related TEAE: Myalgia, participants n (%): 0
  Treatment-related TEAE: Nervous system disorders, occurrences m: 2
  Treatment-related TEAE: Nervous system disorders, participants n (%): 2 (33.3%)
  Treatment-related TEAE: Oropharyngeal pain, participants n (%): 0
  Treatment-related TEAE: Orthostatic hypotension, participants n (%): 0
  Treatment-related TEAE: Phlebitis, participants n (%): 0
  Treatment-related TEAE: Respiratory, Thoracic, and Mediastinal disorders, participants n (%): 0
  Treatment-related TEAE: Skin and Subcutaneous Tissue Disorders, occurrences m: 1
  Treatment-related TEAE: Skin and Subcutaneous Tissue Disorders, participants n (%): 1 (16.7%)
  Treatment-related TEAE: Thrombocytopenia, participants n (%): 0
  Treatment-related TEAE: Vascular Disorders, participants n (%): 0
  Treatment-related TEAE: Vessel puncture site erythema, participants n (%): 0
  Treatment-related TEAE: Vessel puncture site pain, participants n (%): 0
  Treatment-related TEAE: Vomiting, occurrences m: 1
  Treatment-related TEAE: Vomiting, participants n (%): 1 (16.7%)
Cohorts 1-4
  adverse events judged Grade 3 or higher: none
  changes in laboratory parameters: No clinically significant changes
  related IRRs, events: 13
  serious adverse events (SAEs) or deaths: no reports
  subjects with related IRRs: 7
  subjects with study drug infusion interrupted: 3
Cohorts 1-4 (0.05-0.5 mg/kg IV), 29 subjects in the SEQ ID NO: 1 arm
  subjects with at least one TEAE: 25 (86.2%) subjects (%)
Cohorts 1-4, 29 subjects
  TEAEs in SOC General disorders and administration site conditions: 24.1%
  TEAEs in SOC Injury, poisoning, and procedural complication: 48.3%
  Vascular access site pain: 34.5%
  subjects reporting Grade 2 TEAEs: 13.8%
  subjects with treatment related-TEAEs: 24.1%
Cohorts 1-4, 29 subjects in the SEQ ID NO: 1 arm
  total TEAEs reported: 52
Cohorts 1-5
  AEs judged Grade 3 or higher: none
  serious TEAEs: no reports
  treatment-emergent DLTs: no reports
Cohorts 1-5, 35 participants
  TEAEs in SOC General disorders and administration site conditions: 37.1%
  TEAEs in SOC Injury, Poisoning, and Procedural Complications: 51.4%
  participants with at least 1 TEAE deemed related to treatment: 37.1%
  participants with at least 1 TEAE leading to study drug discontinuation: 5.7%
  total TEAE events: 72
Cohorts 1-5, 35 participants (n=10)
  Vascular access site pain: 28.6%
Cohorts 1-5, by treatment assignment or dose level
  Holter monitoring and electrocardiograms: no trends of concern
[8]
  hematology and coagulation: no clinically significant patterns of change
  serum chemistry: no clinically significant patterns of change
Cohorts 1-5, of 47 participants, all in active treatment group
  participants with study drug infusion interrupted: 8 (17.0%) participants (%)
Pooled SEQ ID NO: 1 (N = 29)
  Participants Reporting at least One Related TEAE, %: 24.1%
  Related TEAE Blood and lymphatic system disorders, n participants: 0
